This is an account of results in publication PMC8587071, “Utilization of Sodium Nitroprusside as an Intestinal Permeation Enhancer for Lipophilic Drug Absorption Improvement in the Rat Proximal Intestine” (Molecules, 2021).

A short description of series [1]: in vitro sac permeation study, rat ileum. To be noted: male, Wistar, rat, 200 μM test compound. As for the experimental part: (§1) Animal experimental protocols (approval codes: P18-30, P19-09, and P20-14) were carried out in accordance with the Ethical Committee of Tokyo University of Pharmacy and Life Sciences. Male Wistar rats (8 weeks old) were obtained from Tokyo Laboratory Animals Science Co., Ltd. (Tokyo, Japan). Permeation studies of lipophilic drugs were carried out using the in vitro sac method, as previously described. […] The serosal samples were collected at 0, 10, 20, 30, 40, 60, 90, and 120 min after administration, and analyzed using a reversed-phase HPLC system (LC-2000Plus; JASCO Co., Tokyo, Japan) or fluorescence microplate reader to determine the concentration of each test compound [15].
(§2) Based on these concentrations, the apparent permeability coefficients (Papp) of each test compound were calculated according to the following Equation (1):(1) Pappcm/s=dQ/dt×1/C0S where: • dQ/dt—the flux of the test compound in the serosal side, • C0—the initial concentration in the mucosal side, • S—the surface area of the intestinal lumen.

The next series has as its system rat ileum. Briefly: in vitro sac permeation study, rat ileum. The settings on record: SNP 3 mM pretreatment. As for the experimental part:
as §1, §2

A short description of series [2]: in vitro sac permeation study, rat duodenum. To be noted: male, Wistar, rat, 200 μM test compound. As for the experimental part: (§3) Animal experimental protocols (approval codes: P18-30, P19-09, and P20-14) were carried out in accordance with the Ethical Committee of Tokyo University of Pharmacy and Life Sciences. Male Wistar rats (8 weeks old) were obtained from Tokyo Laboratory Animals Science Co., Ltd. (Tokyo, Japan). Permeation studies of lipophilic drugs were carried out using the in vitro sac method, as previously described.
as §2

The subject of a further series is rat duodenum. Briefly: in vitro sac permeation study, rat duodenum. The settings on record: for Papp Ratio (SNP/CTRL): SNP 3 mM pretreatment. As for the experimental part: as §3, §2
For a further series, the system named is rat colon. Briefly: in vitro sac permeation study, rat colon. The settings on record: SNP 3 mM pretreatment. Here is the method: as §1, §2
A short description of series [3]: in vitro sac permeation study, rat colon. To be noted: male, Wistar, rat, 200 μM test compound. As for the experimental part:
as §1, §2

The nature of series [4]: in vitro sac permeation study, rat jejunum. To be noted: male, Wistar, rat, 200 μM test compound. Here is the method: as §1, §2
The subject of a further series is rat jejunum. Briefly: in vitro sac permeation study, rat jejunum. The settings on record: SNP 3 mM pretreatment. As for the experimental part: as §1, §2
Setting [5] is: Papp SNP, pretreated with SNP 3 mM for 60 min.

The Papp is the rate of passage across a membrane or cell layer, normalised by area and donor concentration. For `CC(C(=O)O)c1ccc(-c2ccccc2)c(F)c1` (centres unmarked) [Flurbiprofen], the apparent permeability coefficient (Papp) at 120 min, 200 μM in series [1] (Papp CTRL, SNP-untreated) was determined as 33.9 ± 11.3 ×10⁻⁶ cm/s; in series [1] (setting [5]) it was 39.8 ± 17.7 ×10⁻⁶ cm/s; in series [2] (Papp CTRL, SNP-untreated), 5.8 ± 1.7 ×10⁻⁶ cm/s; in series [2] (setting [5]), 13 ± 2.7 ×10⁻⁶ cm/s; in series [3] (Papp CTRL, SNP-untreated), 28.3 ± 2.5 ×10⁻⁶ cm/s; in series [3] (setting [5]), 19.4 ± 3.7 ×10⁻⁶ cm/s. Further, the apparent permeability (Papp) at 120 min, 200 μM in series [4] (Papp CTRL, SNP-untreated) amounted to 26 ± 11.9 ×10⁻⁶ cm/s; in series [4] (setting [5]) it was 32.7 ± 12.9 ×10⁻⁶ cm/s. The “Papp Ratio (SNP/CTRL)” value is 1.17 with rat ileum, 2.24 in the series with rat duodenum, 0.69 with rat colon and 1.26 in the series with rat jejunum.
Consider `CC1(C)N([O])C(c2ccc(C(=O)O)cc2)=[N+]([O-])C1(C)C` [c-PTIO, Carboxy-PTIO], for which, in the series on rat duodenum (c-PTIO 1 mM co-pre-treated with SNP 3 mM), the “effect on the SNP enhancement of griseofulvin permeability” value is “inhibited”. The “effect on the SNP-increased FD-4 permeation” value in the series on rat duodenum (c-PTIO 1 mM with SNP 3 mM) is “disappeared”.
In the case of `CC(C)NCC(O)COc1cccc2ccccc12` (centres unmarked) [Propranolol], the Papp at 120 min, 200 μM in series [1] (Papp CTRL, SNP-untreated) was 3.7 ± 1 ×10⁻⁶ cm/s; in series [1] (setting [5]), 3.9 ± 1 ×10⁻⁶ cm/s; in series [2] (Papp CTRL, SNP-untreated), 1.1 ± 0.6 ×10⁻⁶ cm/s; in series [2] (setting [5]) it was 1.3 ± 0.7 ×10⁻⁶ cm/s; in series [3] (Papp CTRL, SNP-untreated), 2.1 ± 1.1 ×10⁻⁶ cm/s; in series [3] (setting [5]) it was 3.5 ± 1.6 ×10⁻⁶ cm/s. In addition, the apparent permeability (Papp) at 120 min, 200 μM in series [4] (Papp CTRL, SNP-untreated) is 4.7 ± 1 ×10⁻⁶ cm/s; in series [4] (setting [5]), 4.3 ± 1.8 ×10⁻⁶ cm/s. The “Papp Ratio (SNP/CTRL)” value in the series on rat ileum came to 1.05; with rat duodenum, 1.18; in the series with rat colon, 1.67; with rat jejunum, 0.91.
Turning to `O[C@@H](CS)[C@@H](O)CS` (racemic) [DTT, dithiothreitol], in the series with rat duodenum (DTT 10 mM for 10 min before SNP 3 mM), the “effect on the SNP enhancement of griseofulvin permeability” value is reported as “visibly disappeared”. For the same compound, the “effect of pretreatment on flurbiprofen permeation” value in the series with rat duodenum (SNP 3 mM 60 min, DTT 10 mM 10 min) was “increased”. For the same compound, the “effect of pretreatment on griseofulvin permeation” value in the series with rat duodenum (SNP or SFC 3 mM 60 min, DTT 10 mM 10 min) is reported as “increased”.
With `COC1=CC(=O)C[C@@H](C)[C@]12Oc1c(Cl)c(OC)cc(OC)c1C2=O` [Griseofulvin], the Papp at 120 min, 200 μM in series [1] (Papp CTRL, SNP-untreated) came out at 24.3 ± 6 ×10⁻⁶ cm/s; in series [1] (setting [5]), 18.4 ± 4.4 ×10⁻⁶ cm/s; in series [2] (Papp CTRL, SNP-untreated) it was 8 ± 4.2 ×10⁻⁶ cm/s; in series [2] (setting [5]), 19.6 ± 4.1 ×10⁻⁶ cm/s; in series [3] (Papp CTRL, SNP-untreated), 39.6 ± 21.4 ×10⁻⁶ cm/s; in series [3] (setting [5]), 31.7 ± 11.1 ×10⁻⁶ cm/s. In addition, the Papp at 120 min, 200 μM stood at 42.2 ± 20 ×10⁻⁶ cm/s in series [4] (Papp CTRL, SNP-untreated) and 70.3 ± 19.2 ×10⁻⁶ cm/s in series [4] (setting [5]). Further, the “Papp Ratio (SNP/CTRL)” value came out at 0.76 in the series with rat ileum, 2.45 in the series on rat duodenum, 0.80 with rat colon and 1.67 with rat jejunum.
